From patent publication US10010581B2, “Syndecan peptides and polypeptides and uses thereof” (Wisconsin Alumni Research Foundation, priority 2012, dated 2018)

What was measured:
[1] = system: HaCat keratinocytes or MCF10A mammary epithelial cells; test: competition of LPA-induced haptotactic migration by GST fusion proteins or synthetic peptides (FIG. 10 summary); type: cell-based, human; conditions: 0.1 to 30 μM, 3 μM LPA
Experimental: FIGS. 10A-C. Schematic summary of experiments using either recombinant GST fusion proteins or synthetic peptides to disrupt Sdc1-dependent coupling of HER2 to α6β4 integrin necessary for LPA-induced haptotactic migration. GST-fusion proteins or synthetic peptides were added at concentrations ranging from 0.1 to 30 μM to the culture medium of human HaCat keratinocytes or MCF10A mammary epithelial cells in the presence or absence of 3 μM LPA. The ability of the constructs to inhibit the migration of the cells to close a scratch wound in confluent monolayers was determined and expressed as the concentration of inhibitor necessary to cause 50% inhibition of cell migration. (FIG. 10A) Competition using recombinant GST-fusion proteins. GST-Sdc1 fusion proteins bearing truncations or mutations were assessed for their competitive activity. […] (FIG. 10B) Competition with synthetic peptides. Peptides were purchased from commercial sources for testing as a putative synstatin inhibitory peptide (SSTNHER2). […] (FIG. 10C) Schematic representation of the active site in Sdc1. The active site is shown as a juxtamembrane site in the ectodomain of Sdc1. TM is the transmembrane domain and CYTO is the cytoplasmic domain. The sequence of a peptide derived from this site (SSTNHER2) is shown along with its homology across other mammalian Sdc1 species. The human STTNHER2 sequence is SEQ ID NO:23; the homology for STTNHER2 across mammals is SEQ ID NO:24.
(§1) HaCat or MCF10A cells were grown to confluence on 48 well-plates were starved for 6 hr by serum deprivation followed by introduction of a scratch wound in the monolayer using 200 μl pipette tip. Cells were cultured an additional 18 hr in DMEM containing mAb 3E1 (10 μg/ml) and goat anti-mouse IgG (50 μg/ml), EGF (10 ng/ml) or HGF (20 ng/ml) to cause cell migration in the presence or absence of inhibitors. Images were acquired using a PlanApo 20 (0.75 numerical aperture) objective and a Photometrics CoolSnap ES camera on a Nikon Eclipse TE2000U microscopy system and wound closure quantified.

[2] = system: MCF10A mammary epithelial cells; test: scratch wound haptotaxis induced by clustering the α6β4 integrin; type: cell-based, human; conditions: α6β4 integrin clustered
Experimental: FIG. 9. Sdc1 ectodomain fragments and β4 dominant-negative mutant specific for Sdc1/α6β4/HER2 block MCF10A mammary epithelial cell migration. Haptotaxis of MCF10A human mammary epithelial cells induced by clustering the α6β4 integrin in a scratch wound assay is used to test the efficacy of inhibitors that target the Sdc1 mechanism. Cells are incubated either with entire recombinant syndecan ectodomains (Sdc1 ectodomain (S1ED) or Sdc4 ectodomain (S4ED) as a control), or an active fragment of mouse S1ED (S1ED^200-252) containing the inhibitory site.
as §1
The inventor used this assay to further truncate the S1ED recombinant proteins in order to find the smallest peptide that retains full inhibitory activity (e.g., SSTNHER2). The inventor tested mouse and human S1ED and find that they compete equally. […]

SSTNHER2: synthetic peptide of human Sdc1 ectodomain amino acids 210-240 (SEQ ID NO:3), inhibits Sdc1 coupling of HER2 to α6β4 integrin (DFTFETSGENTAVVAVEPDRRNQSPVDQGAT; listed as Homo sapiens)
competitive (inhibitory) activity on haptotactic migration [1]: fully active
haptotaxis (migration to close a scratch wound) [2]: blocks haptotaxis
